Data set [1] relates to range of cancer cell lines, including leukaemia, breast, colon, and cervical cancer. Put plainly: Toxicity to a range of cancer cell lines (panel). It is filed as cell-based. As to conditions: relative to parent drug 1. Here is the method: Assays assessing cytotoxicity of β-lapachone and derivatives were performed by CellTiter-Blue assay (Promega) according to the manufacturer's instructions. Briefly, adherent cancer-cell lines were plated at 20,000 cells/well in 96 well plates or suspension cell lines were plated at a concentration of 2×10^5 cells/mL in 24 well plates. Compound stocks in media were made by dilution of DMSO stocks containing the compound of interest to obtain a final in-plate DMSO concentration of only 0.1%. Incubation was performed for 48 h. Following incubation, media was replaced with media containing CellTiter-Blue (Promega) in 1:10 dilution and the plates were incubated for 1.5-4 h. The fluorescence of the plates was recorded (excitation 555 nm, emission 585 nm, […] Reader, Molecular Devices). Cell viability was calculated by division of the fluorescence intensity of treated wells by that of the calculated average fluorescence intensity of replicate negative control wells containing cells with 0.1% DMSO only. Values and reported error bars represent the mean and standard error of the mean of three triplicate repeats for each concentration tested.

Data set [2] has as its system HL-60 cells. Put plainly: N-acetyl cysteine cytotoxicity assay. It is filed as cell-based. As to conditions: HL-60. Here is the method:
For assays involving cytotoxicity of β-lapachone derivatives with and without antioxidant N—-acetyl cysteine, HL-60 cells were plated into 24 well plates at a concentration of 2.5×10^5 cells/mL in 450 μL. To each well was then added 25 μL of drug diluted in PBS to obtain the correct in-plate drug concentration, and 25 μL of PBS or a stock of N-acetyl cysteine at 12 mM in PBS. DMSO was maintained at an in-plate concentration of 0.1%. After 96 h incubation, toxicity was assessed by counting of live cells using the Trypan Blue exclusion method with a Countess II Automated Cell Counter (ThermoFisher Scientific) according to the manufacturer's instructions. Cell viability was determined by division of average live cell number of treated wells by average live cell number for control wells treated with 0.1% DMSO. […] Values recorded are the mean of three repeat wells, with error bars representing the standard error of the mean for each concentration tested.

Data set [3] concerns ovine blood. Put plainly: Methaemoglobin analysis in sheep's blood. It counts as cell-based. As to conditions: in vitro ovine blood model, 1 h incubation, absorbance at 630 nm. Here is the method:
Defibrinated Oxoid™ sheep's blood (ThermoScientific) was diluted to a 5% v/v suspension in PBS pH 7.4. In a 96 well microtiter plate, 150 μL of blood suspension was added to 50 μL of serially diluted compound in PBS containing a 4× stock of each compound of interest. Serial dilution of compounds from DMSO stocks into PBS was performed to achieve an in-plate DMSO concentration of 0.1%. PBS buffer alone was used as a negative control. Three replicates were performed for each compound concentration analysed. The plate was incubated for the specified time at 37° C. The plate was then centrifuged at 3,500 rpm for 5 min. The supernatant was removed and cells lysed by resuspension in 100 μL of a solution of Triton-X-100 (1%) in PBS. Following this 80 μL of lysed cell contents were transferred to a second microtiter plate for UV measurement. To determine methaemoglobin increase, UV absorbance was measured immediately at 630 nm (MiniMax i3x Imager, Molecular Devices). Methaemoglobin increase was determined by (A630−A^0630)/(A^0630)×100, where A630 is the absorbance of the test well at 630 nm, and A^0630 is the absorbance of the negative control at 630 nm. Mean values and standard error of the mean of three independent replicates are plotted.

Data set [4] has as its system HL-60 cells. Put plainly: Cellular ROS detection with DCFH-DA. As to conditions: HL-60, 2′,7′-dichlorodihydrofluorescein diacetate. It is filed as cell-based. Here is the method: To determine ROS generation by compounds in leukaemia cells, HL-60 cells were washed with PBS, then incubated in serum free media (10 mL of 1.6×10^6/mL cell concentration) with 2,7-dichlorofluorescin diacetate (DCFH-DA) at 20 μM for 30 min at 37° C. Following this, the cells were washed with PBS and resuspended in Fluorbrite-DMEM media (ThermoFisher) (10 mL). 450 μL of the cell mixture was seeded into wells of a clear flat bottomed 12 well plate, to which 50 μL of a 10× stock of the compounds in media had been already added, to achieve a final compound concentration of 50 μM. The 10× media stocks were made by 100-fold dilution of DMSO compound stocks, to ensure a final in-plate DMSO concentration of 0.1%. DMSO 0.1% only was used as a negative control. H2O2 was used as a positive control, for which 10 μL of a 30% aqueous solution was dissolved into 1 mL DMSO, then diluted 100-fold into media for plating, to give a final H2O2 concentration of […]. After plating the cells were immediately incubated at 37° C. in the dark for 15 min before the fluorescence of the wells (excitation 485 nm, emission 535 nm) was recorded (MiniMax i3x Imager, Molecular Devices). Values recorded are the mean of three repeat wells, with error bars representing the standard error of the mean.

Data set [5] relates to ovine blood. Put plainly: Haemolysis in in vitro ovine blood model. As to conditions: compared with β-lapachone 1. It counts as cell-based, sheep.
A short description of data set [6]: In vitro redox-cycling ability, phenol red/horseradish peroxidase assay. It counts as biochemical. As to conditions: HRP/phenol-red reporter assay, absorbance at 610 nm; up to 25 μM. Here is the method:
In vitro redox cycling capability of compounds was assessed by phenol red/horseradish peroxidase (HRP) assay by adaption of a previously described protocol (Assay Drug Dev. Technol., 2008, 6, 505-518). Briefly, stocks were prepared as follows: (1) DTT to a concentration of 2.4 μM in PBS pH 7.4 buffer; (2) compound stocks in PBS pH 7.4 buffer to 3× the desired concentration by 1000× dilution of DMSO stocks; (3) a stock of phenol-red-HRP detection reagent containing 300 μg/mL phenol red and 180 μg/mL HRP enzyme in PBS pH 7.4 buffer; (4) a stock of 1 M NaOH in water; (5) a stock of 100 μM H2O2 in PBS prepared by addition of a 30% solution of H2O2 in water into 1000 μL of PBS. Into each well of a 96 well clear flat-bottomed plate was then added 40 μL of compound stock in PBS followed by 40 μL of DTT stock, followed immediately by 40 μL of phenol-red-HRP reagent. A positive control with 100 μM H2O2 added in place of compound was included. The plate was incubated in the dark at room temperature for 15 min. Following this 20 μL of 1 M NaOH was added to each well to terminate the reaction. Absorbance was immediately measured at 610 nm (MiniMax i3x Imager, Molecular Devices). Absorbance of treated wells was normalised to control wells treated with PBS only (zero redox cycling). All readings were performed in triplicate and error bars display standard error of the mean.
For orientation: A reporter such as luciferase makes a cellular process visible.

Data set [7] has as its system HL-60 cells. Put plainly: Lysosomal inhibition assay with small molecule prodrugs. It counts as cell-based. As to conditions: HL-60, compared with untreated. Here is the method: Assays to assess the effect of lysosomal activity on prodrugs were performed as follows: HL-60 cells were plated into 96 well plates at a concentration of 2.5×10^5 cells/mL in 180 μL media. Cells were treated with 10 μL of a stock of NH4Cl in PBS (to obtain an in-plate concentration of 3 or 30 mM), 10 μL of a dilution of a DMSO stock of E64d in PBS (to obtain an in-plate concentration of 30 μM), PBS only, or a dilution of DMSO in PBS. Cells were incubated for 30 min. Following this, 10 μL of a stock of test compound made by dilution of a DMSO stock into media was added. DMSO was present in-plate at a maximum of 0.2%. Cells were incubated overnight for 16 h. Following incubation, media was replaced with media containing CellTiter-Blue (Promega) in 1:4 dilution and the plates were incubated for 6 h. The fluorescence of the plates was recorded (excitation 555 nm, emission 585 nm, MiniMax i3x Reader, Molecular Devices). Cell viability was calculated by division of the fluorescence intensity of treated wells by that of the calculated average fluorescence intensity of the relevant negative control wells. Values and reported error bars represent the mean and standard error of the mean of three triplicate repeats for each concentration tested.

Data set [8] concerns MOLM-13. Put plainly: Viability assay with small molecule prodrugs, Trypan Blue exclusion, MOLM-13. It counts as cell-based. As to conditions: MOLM-13. Here is the method:
(§1) For assays assessing cytotoxicity of β-lapachone versus small molecule dipeptide prodrugs, suspension cells were plated into 24 well plates at a density of 2.5×10^5 cells/mL in 240 μL. Serial dilutions of compound were made up in PBS. 60 μL of each stock of either PBS, or compound in PBS was added to the cells to achieve the desired final concentration. After the specified incubation time, toxicity was assessed by counting of live cells using the Trypan Blue exclusion method with a Countess II Automated Cell Counter (ThermoFisher Scientific) according to the manufacturer's instructions. Cell viability was determined by division of average live cell number of treated wells by average live cell number for control wells treated with PBS only. Values recorded are the mean of three repeat wells, with error bars representing the standard error of the mean for each concentration tested. IC50 values were calculated using GraphPad Prism software.

Data set [9] has as its system HL-60. Put plainly: Viability assay with small molecule prodrugs, Trypan Blue exclusion, HL-60. It is filed as cell-based. Here is the method:
as §1

Entries after “also recorded” stand apart in the source; their conditions may differ. A value given as a limit tells only on which side of the number the result lay.

`CC1(C)CCC2=C(O1)c1ccccc1C(O)(Cc1ccccc1)C2=O` (stereo not drawn) [Compound 24, 6-benzyl-6-hydroxy-2,2-dimethyl-2,3,4,6-tetrahydro-5H-benzo[h]chromen-5-one]: in data set [1], the decrease in toxicity is given as > 20 fold. In [2], the “change of IC50 upon NAC addition” value is “unchanged”. Further, in data set [3], the methaemoglobin formation entry is on record as “did not occur”. For the same molecule, the ROS generation entry in data set [4] is “did not generate detectable ROS”. Further, the haemolysis of haemoglobin entry in data set [5] is reported as “lower”. In addition, the “redox activity (in vitro redox-cycling capability)” value in [6] was “no measurable redox activity; also recorded: non-redox active”.
As to `CC1(C)CCc2c3c(c4ccccc4c2O1)OCCO3` [Compound 25, 7,7-dimethyl-2,3,5,6-tetrahydro-1,4,8-trioxatriphenylene, reference compound], the methaemoglobin formation result in data set [3] is “did not occur”. Besides, in data set [5], the haemolysis of haemoglobin result was “lower”. Besides, the “redox activity (in vitro redox-cycling capability)” value in data set [6] is given as “no measurable redox activity”.
As to `CC(C)[C@H](NC(=O)OCc1ccccc1)C(=O)N[C@@H](CCCNC(N)=O)C(=O)Nc1ccc(CC2(O)C(=O)C3=C(OC(C)(C)CC3)c3ccccc32)cc1` (stereo partly drawn) [Compound 26, Cbz-Val-Cit-para-aminobenzyl β-lapa-ketol], the “toxicity after lysosomal deacidification (NH4Cl) or inhibition (E64d)” value in data set [7] is reported as “less toxic”. Besides, the “IC50 relative to 1” value in data set [8] and in data set [9] was 10 fold throughout.

The record behind these values is patent US20250170252A1, “QUINONE PROTECTED FORMS AND CONJUGATES” (CAMBRIDGE ENTERPRISE LIMITED, priority 2022, published 2025).
